Laboratory results published in US20260242368A1, “GBA1 AND GCS DUAL MODULATOR” (ONO PHARMACEUTICAL CO., LTD., priority 2023, published 2026).

What was measured:
Human GCS = target: T1, Human GCS (Homo sapiens, UniProt Q16739); test: Evaluation of human GCS enzyme inhibitory activity (HL60 cell lysate, NBD-C6 ceramide, LC/MSMS); type: biochemical; settings: 37° C. 90 min, read-out: GCS inhibition IC50
T1 construct: The lysate of HL60 cells were used in this assay; endogenous in cells; host or cells: HL60 cells (lysate supernatant)
T1 sequence (Q16739 1-394): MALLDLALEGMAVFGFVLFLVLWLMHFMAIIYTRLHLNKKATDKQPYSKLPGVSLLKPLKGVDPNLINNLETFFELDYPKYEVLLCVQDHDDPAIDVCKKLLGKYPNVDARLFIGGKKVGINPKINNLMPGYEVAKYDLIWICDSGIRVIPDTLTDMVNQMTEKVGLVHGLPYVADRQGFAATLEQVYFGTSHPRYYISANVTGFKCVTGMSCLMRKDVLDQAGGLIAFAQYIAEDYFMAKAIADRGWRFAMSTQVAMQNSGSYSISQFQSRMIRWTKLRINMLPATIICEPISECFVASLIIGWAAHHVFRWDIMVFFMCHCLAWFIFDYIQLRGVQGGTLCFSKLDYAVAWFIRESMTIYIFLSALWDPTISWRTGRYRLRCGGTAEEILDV

[1] = system: GBA1 (β-glucocerebrosidase mutation of N307S) in Gaucher's cell line GM00372; test: Evaluation of human GBA1 cellular activity (Gaucher's cell line, 6 days treatment); type: cell-based; settings: GM00372 cells, DMSO-treated cells as negative control, normalized to protein
Experimental: The Gaucher's cell line with β-glucocerebrosidase mutation of N307S (Coriell Institute, Cat. GM00372) was cultured and expanded using EMEM with 15% FBS. The cell was passaged at least twice and could be used until the 20th passages. The cells were seeded at the density of 1.25×10^4 cells/well in 96-well plate. After cell culturing overnight, 50 μL of cell medium was discarded, and 50 μL of the diluted compound was added (with 0.3% DMSO). The cells were treated with compound for 6 days. On day 6, the cells were washed once with HBSS and incubated in HBSS for 3 h followed by lysing using 30 μL assay buffer (pH5.2 Mcllvaine buffer supplemented with 0.25% sodium taurocholate, 0.5% Triton X-100 and protease cocktail inhibitor) for 5 min at 4° C. on shaker. For GBA enzymatic assay, 15 μL of cell lysate was incubated with 5 μL of 4-MUG (6 mmol/L) for 60 min in 384 well format followed by adding 20 μL of stop solution (1 mmol/L glycine solution adjusted to pH10 using 1 mol/L NaOH). The reaction product of 4-MU was measured (excitation 355 nm, emission 450 nm) on fluorescence spectrophotometer. For the protein quantification, 4 μL of cell lysate was mixed with 36 μL of Pierce BCA reagents for 30 min. The protein was detected according to the manufacturer's instructions. Enzyme activity in cell lysate was normalized to protein concentration. The blank included substrate and assay buffer followed by addition of stop solution. Enzyme activity in cells treated with DMSO was used as a negative control, and results were represented as the percent change in enzyme activity in cells treated with each compound.

human GBA2 = target: T2, human GBA2 (Homo sapiens, UniProt Q9HCG7); test: Evaluation of human GBA2 enzyme inhibitory activity (GBA2-rich membrane suspension, 4-MUG); type: biochemical; settings: GBA2-rich membrane of transfected HEK293T cells, CBE preincubation, read-out: GBA2 inhibition IC50
T2 construct: The complete open reading frames for GBA2 (human NM_020944.2) was amplified from human tissue; made in house; host or cells: HEK293T cells, transiently transfected (pCDNA-3.1); washed membrane pellet used as crude enzyme
T2 sequence (Q9HCG7 1-927): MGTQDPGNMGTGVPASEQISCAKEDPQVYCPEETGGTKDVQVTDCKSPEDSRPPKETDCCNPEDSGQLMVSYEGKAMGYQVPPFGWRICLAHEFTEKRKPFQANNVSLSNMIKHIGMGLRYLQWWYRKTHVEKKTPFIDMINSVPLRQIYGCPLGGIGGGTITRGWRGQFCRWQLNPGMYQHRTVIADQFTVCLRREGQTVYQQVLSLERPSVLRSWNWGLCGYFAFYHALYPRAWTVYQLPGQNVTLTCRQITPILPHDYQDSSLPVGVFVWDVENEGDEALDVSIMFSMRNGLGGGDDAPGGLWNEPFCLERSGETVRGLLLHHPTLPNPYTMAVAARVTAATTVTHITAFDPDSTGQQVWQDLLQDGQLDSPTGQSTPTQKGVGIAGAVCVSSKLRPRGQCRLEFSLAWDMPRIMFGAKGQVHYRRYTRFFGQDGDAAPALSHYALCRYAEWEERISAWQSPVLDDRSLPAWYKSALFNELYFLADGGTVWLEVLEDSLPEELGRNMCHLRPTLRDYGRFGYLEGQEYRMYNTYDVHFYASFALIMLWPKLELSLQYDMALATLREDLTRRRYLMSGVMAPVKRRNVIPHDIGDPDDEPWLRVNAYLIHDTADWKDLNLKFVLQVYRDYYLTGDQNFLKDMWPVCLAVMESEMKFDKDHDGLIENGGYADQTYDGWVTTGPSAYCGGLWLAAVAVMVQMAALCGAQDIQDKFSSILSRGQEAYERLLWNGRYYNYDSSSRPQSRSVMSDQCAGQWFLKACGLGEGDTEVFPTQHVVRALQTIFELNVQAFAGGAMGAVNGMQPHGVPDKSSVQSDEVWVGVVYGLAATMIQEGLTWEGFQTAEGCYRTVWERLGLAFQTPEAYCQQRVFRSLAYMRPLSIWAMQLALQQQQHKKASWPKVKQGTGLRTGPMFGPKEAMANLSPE

[2] = target: T3, recombinant GBA enzyme (human GBA1) (Homo sapiens, UniProt P04062); test: Evaluation of human GBA1 enzyme inhibitory activity (4-MUG substrate); type: biochemical; settings: pH5.2, 37° C. 60 min, read-out: GBA1 inhibition IC50
T3 sequence (P04062 40-536): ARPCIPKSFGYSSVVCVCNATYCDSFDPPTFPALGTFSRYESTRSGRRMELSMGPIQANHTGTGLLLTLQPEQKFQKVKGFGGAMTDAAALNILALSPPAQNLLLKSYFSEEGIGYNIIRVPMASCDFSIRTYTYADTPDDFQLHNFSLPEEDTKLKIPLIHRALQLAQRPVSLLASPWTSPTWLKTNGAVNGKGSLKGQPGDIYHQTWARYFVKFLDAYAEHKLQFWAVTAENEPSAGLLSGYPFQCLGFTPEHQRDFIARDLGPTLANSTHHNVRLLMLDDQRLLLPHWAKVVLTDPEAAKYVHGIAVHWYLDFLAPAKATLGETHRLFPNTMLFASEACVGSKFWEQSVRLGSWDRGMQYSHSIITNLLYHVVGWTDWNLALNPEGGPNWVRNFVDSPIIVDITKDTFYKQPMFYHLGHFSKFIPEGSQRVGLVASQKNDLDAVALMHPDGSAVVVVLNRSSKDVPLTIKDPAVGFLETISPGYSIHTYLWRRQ

| Compound | IC50 (Human GCS) [nM] | Percent change in enzyme activity at test concentration 0.37 μM [1] [%] | Percent change in enzyme activity at test concentration 1.1 μM [1] [%] | Percent change in enzyme activity at test concentration 3.3 μM [1] [%] | Percent change in enzyme activity at test concentration 10 μM [1] [%] | Percent change in enzyme activity at test concentration […] [1] [%] | IC50 (human GBA2) [µM] | IC50 [2] [nM] |
| --- | --- | --- | --- | --- | --- | --- | --- | --- |
| CCOc1cc(COC[C@@H](F)CCCCN2C[C@H](O)[C@@H](O)[C@H](O)[C@@H](O)C2)ccc1F (single isomer, unassigned) [Example 72] | 190 | 214 | 248 | 259 | 284 | 160 | > 10 | 1200 |
| O[C@H]1[C@H](O)[C@@H](O)CN(CCCC[C@H](F)COCc2csc(-c3ccc(F)cc3)n2)C[C@@H]1O (single isomer, unassigned) [Example 74] | 30 | 150 | 185 | 193 | 216 | 96 | > 10 | 1700 |
| Cc1nc(COC[C@@H](F)CCCCN2C[C@H](O)[C@@H](O)[C@H](O)[C@@H](O)C2)c(-c2cc(F)cc(F)c2)o1 (single isomer, unassigned) [Example 100] |  | 147 | 145 | 163 | 169 | 142 |  |  |
| CCc1ccc(COC[C@@H](F)CCCCN2C[C@H](O)[C@@H](O)[C@H](O)[C@@H](O)C2)cc1 (single isomer, unassigned) [Example 101] | 170 | 157 | 209 | 219 | 227 | 157 | > 10 | 1100 |
| O[C@H]1[C@H](O)[C@@H](O)CN(CCCC[C@H](F)COCc2ccc(Cl)cc2)C[C@@H]1O (single isomer, unassigned) [Example 107] | 130 | 110 | 141 | 157 | 199 | 109 | > 10 | 1200 |
| Cc1ccc(COC[C@@H](F)CCCCN2C[C@H](O)[C@@H](O)[C@H](O)[C@@H](O)C2)cc1 (single isomer, unassigned) [Example 135] | 670 | 108 | 127 | 153 | 191 | 102 | > 10 | 3200 |
| O[C@H]1[C@H](O)[C@@H](O)CN(CCCC[C@H](F)COCc2ccc(-c3cc(F)cc(F)c3)nn2)C[C@@H]1O (single isomer, unassigned) [Example 139] | 220 | 119 | 154 | 157 | 204 | 115 | > 10 | 5100 |
| Cc1ccc(COCCCCCCN2C[C@H](O)[C@@H](O)[C@H](O)[C@@H](O)C2)cc1 [Example 1, (3S,4R,5R,6S)-1-{6-[(4-methylbenzyl)oxy]hexyl}-3,4,5,6-azepanetetrol] | 2000 | 166 | 200 | 221 | 230 | 155 | > 10 | 5100 |
| O[C@H]1[C@H](O)[C@@H](O)CN(CCCCCCOCc2csc(-c3cc(F)cc(F)c3)n2)C[C@@H]1O [Example 21, (3S,4R,5R,6S)-1-(6-{[2-(3,5-difluorophenyl)-1,3-thiazol-4-yl]methoxy}hexyl)-3,4,5,6-azepanetetrol] | 60 |  |  |  |  |  | > 10 | 2400 |
